Reference: patent US9016829B2, “Ink composition, ink set, and image forming method” (FUJIFILM Corporation, priority 2011, dated 2015)

Assay: Solubility with respect to pure water
Format: physicochemical
Conditions: 25° C.

## CC(C)(O)C(=O)c1ccc(OCCO)cc1 [IRGACURE 2959]
  solubility with respect to pure water: water (25° C.): 7.6 g/l)
